In PubChem BioAssay (NCI):
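Results reflect a 48-hour exposure of cells in 96-well plates to compound at five concentrations. TGI marks complete inhibition of growth.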

Key:
Assay in all cases: growth of human tumour cells (NCI), 48 h
[1] = system: DU-145 prostate
[2] = system: PC-3 prostate
[3] = system: SK-MEL-2 melanoma
[4] = system: MDA-N
[5] = system: SN12C renal
[6] = system: CCRF-CEM leukemia
[7] = system: CAKI-1 renal
[8] = system: EKVX NSCLC
[9] = system: SK-OV-3 ovarian
[10] = system: HCT-15 colon
[11] = system: UACC-62 melanoma
[12] = system: SNB-75 CNS
[13] = system: HOP-62 NSCLC
[14] = system: MALME-3M melanoma
[15] = system: NCI/ADR-RES ovarian
[16] = system: OVCAR-4 ovarian
[17] = system: U251 CNS
[18] = system: IGROV1 ovarian
[19] = system: A498 renal
[20] = system: SF-539 CNS

| Compound | TGI [1] [µM] | TGI [2] [µM] | TGI [3] [µM] | TGI [4] [µM] | TGI [5] [µM] | TGI [6] [µM] | TGI [7] [µM] | TGI [8] [µM] | TGI [9] [µM] | TGI [10] [µM] | TGI [11] [µM] | TGI [12] [µM] | TGI [13] [µM] | TGI [14] [µM] | TGI [15] [µM] | TGI [16] [µM] | TGI [17] [µM] | TGI [18] [µM] | TGI [19] [µM] | TGI [20] [µM] |
| --- | --- | --- | --- | --- | --- | --- | --- | --- | --- | --- | --- | --- | --- | --- | --- | --- | --- | --- | --- | --- |
| COC(=O)[C@H](Cc1ccccc1)NC(=O)OCC1OC(n2cc(C)c(=O)[nH]c2=O)CC1N=[N+]=[N-] (stereo not given in full) | > 100 | > 100 | > 100 | > 100 | > 100 | > 100 | > 100 | > 100 | > 100 | > 100 | > 100 | > 100 | > 100 | > 100 | > 100 | > 100 | > 100 | > 100 |  |  |
| Cc1nc(-c2cccnc2)sc1C(=O)CC(=O)C(=O)Nc1cccc(NC(=O)C(=O)CC(=O)c2sc(-c3cccnc3)nc2C)n1 | > 100 | > 100 | > 100 | > 100 | > 100 | > 100 | > 100 | > 100 | > 100 | > 100 | > 100 | > 100 |  | > 100 | > 100 | > 100 | > 100 | > 100 | > 100 | > 100 |
| CCCC(=O)Nc1cc(/C=C/C(=O)N2CC(CCl)c3ccc([N+](=O)[O-])cc32)n(C)c1 (stereo not given) | > 100 | > 100 | > 100 | > 100 | > 100 | 29.4 | > 100 | > 100 | > 100 | > 100 | > 100 | > 100 |  | > 100 | > 100 | > 100 | > 100 | > 100 |  | > 100 |
| C/C1=C\[C@@H](C)C[C@@H](C)OC(=O)[C@@H](C)NC(=O)[C@H](Cc2ccc(O)c(Br)c2)N(C)C(=O)CNC(=O)[C@H](C)C1 | > 100 | 5.04 | 25.6 | > 100 | > 100 | < 0.01 |  |  | 5.26 | 44.2 | > 55.1 | < 0.01 |  | 9.83 | > 57 |  | 5.34 | 0.033 | < 0.021 | 0.677 |
| COc1cc(/C=C2\N=C(c3ccccc3)N(c3nc4ccccc4s3)C2=O)cc(OC)c1OC | > 100 | > 100 | > 100 | 54.4 | 82.4 |  | > 100 | > 100 |  | > 100 |  | 61 | > 100 |  | 62 | 68 | > 100 | > 100 | > 100 | > 100 |
| COc1ccc(N[C@H](CS(=O)c2ccc(C)cc2)C(F)(F)F)cc1 (stereo not given in full) | > 100 | > 100 | > 100 | > 100 | > 100 | > 100 | > 100 | > 100 | > 100 | > 100 | > 100 | > 100 |  | > 100 | > 100 | > 100 | > 100 | > 100 |  | > 100 |
| Cc1cn(CCCCOC(=O)NC(CCCN=C(N)N)C(=O)O)c(=O)[nH]c1=O (stereo not given) | > 100 | > 100 | > 100 | > 100 | > 100 | > 100 | > 100 | > 100 | > 100 | > 100 | > 100 | > 100 | > 100 |  | > 100 | > 100 | > 100 | > 100 | > 100 | > 100 |
| CC(C)(C)OC(=O)NCC(c1c[nH]c2cc(Br)ccc12)c1c[nH]c2cc(Br)ccc12 | 31.7 | 31.1 | 34 | 34.4 | 33.6 | > 100 | 91.5 | 32.8 | 29.5 | 30.2 | 30.1 | 49.6 | 33.2 | 31.7 | 35.9 | 32.9 | 31 | 29.4 |  | 38 |
| CCCC(=O)Oc1c2ccsc2c(OC(=O)CCC)c2ccsc12 | 1.47 | 3.52 | 1.86 | 0.725 | 2.98 | 9.13 | 11.7 | 5.2 | 10.4 | 4.59 | 2.07 |  | 2.9 | 0.699 | 4.55 | 5.7 | 4.4 | 6.87 | 7.34 | 2.16 |
| Cc1cc(OP2(=O)NCc3ccncc3O2)ccc1Cl (stereo not given) | > 100 | > 100 | > 100 | > 100 | > 100 | > 100 | > 100 | > 100 |  | > 100 | > 100 | > 100 | > 100 |  | > 100 | > 100 | > 100 | > 100 | > 100 | > 100 |
| N#CC12CC(C=O)=C(N)C1(C#N)CC(C=O)=C2N (stereo not given) | > 100 | > 100 | 76.3 | > 100 | > 100 | > 100 | > 100 | > 100 | > 100 | 38.5 | > 100 | > 100 | > 100 | > 100 | > 100 |  | > 100 | > 100 | > 100 | > 100 |
| CC1(C)CC[C@]2(C)[C@@H](O)C[C@]3(C)C(=CC[C@@H]4[C@@]5(C)CC[C@H](O)C(C)(C)[C@@H]5CC[C@]43C)[C@@H]2C1 | > 100 | > 100 | 80.7 | > 100 | > 100 | > 100 | > 100 | > 100 | 40.7 | > 100 | > 100 |  | > 100 | 86.9 | > 100 | > 100 | > 100 | > 100 | 99.2 |  |
| Cc1ccc(C(=O)C2C=C(c3ccc(C)cc3)SC3C=CCC32)cc1 (stereo not given) | > 100 | 39.4 | 36.8 | 32.3 | 33.1 | 38.3 | 42.4 | 97.6 | 54.3 | 47.9 | 38.8 |  | 45.2 | 34.1 | 40.8 | 75.7 | 32.5 | 40.1 | 58.4 | 32.2 |
| Nc1nncc2n[nH]nc12 | > 100 | > 100 | > 100 | > 100 | > 100 | > 100 | > 100 | > 100 |  | > 100 | > 100 | > 100 | > 100 |  | > 100 |  | > 100 | > 100 | > 100 | > 100 |
| CN1/C(=C\N=O)C(C)(C)N(O)C1(C)C | > 100 | > 100 | > 100 | > 100 | > 100 | > 100 | > 100 | > 100 | > 100 | > 100 | > 100 | > 100 | > 100 | > 100 | > 100 | > 100 | > 100 | > 100 |  | > 100 |
| O=C1/C(=C/c2ccc([N+](=O)[O-])cc2)CCCc2ccccc21 | > 100 | > 100 | > 100 | > 100 | > 100 | > 100 | > 100 | > 100 | > 100 | > 100 | > 100 | > 100 | > 100 | > 100 | > 100 | > 100 | > 100 | > 100 |  | > 100 |
| COP(=O)(/C=C/C(NC(=O)C(Cl)(Cl)Cl)c1ccccc1)OC (stereo not given) | > 100 | > 100 | > 100 | > 100 | > 100 |  | > 100 | > 100 | > 100 | > 100 | > 100 | > 100 | > 100 | > 100 | > 100 | > 100 | > 100 | > 100 | > 100 |  |
| CC(=O)OC(OC(C)=O)c1c2ccccc2cc2ccccc12 | > 100 | 90.5 |  | 63.7 | 63.4 | 18 | > 100 | 50.4 | 52.4 | 56 | 41.7 | 43.9 |  |  | 46.7 |  | > 100 | 55.9 | 40.7 | 36.1 |
| COc1c(C)c(C/C=C(\C)CC/C=C(\C)CC/C=C(\C)CC/C=C(\C)CCC=C(C)C)c(OC)c(OC)c1OC | > 100 | > 100 | > 100 | > 100 | 52.7 | 53.8 | > 100 | > 100 | > 100 | > 100 | > 100 | > 100 | 37.6 |  | 59.8 | 52.3 | > 100 | 60.3 |  | > 100 |
| C=CC(=C)CCC(Br)C(C)(C)Br (stereo not given) | > 100 | > 100 | > 100 | > 100 | > 100 | 50.8 |  | > 100 | > 100 | > 100 | > 100 | > 100 | > 100 | > 100 | > 100 | > 100 | > 100 | > 100 |  | > 100 |
| COc1ccc2nc(N/N=C/c3ccc(C)s3)cc(C)c2c1 | 34.7 | 35.9 | 41.6 | 38.2 | 38.3 | > 100 | 40.5 | 87.9 | 45 | 32.4 | 35.4 | 46.4 | 39.6 | 58.7 | 66.4 | 48.7 | 72.9 | 90 |  | 34.8 |
| Cc1cc(C)n(CN(CCCCO)Cn2nc(C)cc2C)n1 | 53.6 | 57.7 | 41.7 | 35.1 | 67 | 1.74 | 99.5 | 76.3 | > 100 | 34.7 | 36.9 |  | 47.6 | 57.3 | 39 | 61.9 | 49.9 | 73.4 | > 100 | 36.2 |
| Cc1cc2c3c(nc2c2cc[nH]c(C)c12)CCCC3 | 11.1 | 16.6 | 3.2 | 3.32 | 3.39 | 6.48 |  | 8.44 | 3.7 | 3.54 | 3.32 | 4.02 | 3.62 | 2.74 | 19.5 | 6.45 | 3.83 | 5.4 |  | 3.72 |
| O=C(CSc1nc2ccc(I)cc2c(=O)n1Cc1ccccc1)NNC(=S)Nc1ccccc1 | > 100 | > 100 | > 100 | > 100 | > 100 | > 100 | > 100 | 6.14 | > 100 | > 100 | > 100 | > 100 |  |  | > 100 | > 100 | > 100 |  | > 100 |  |
| CCSC1=N/C(=C\c2ccco2)C(Nc2ccc(C)cc2)=N1 | > 100 | > 100 | > 100 | > 100 | > 100 | > 100 |  | > 100 | > 100 | > 100 | > 100 | > 100 | > 100 | > 100 | > 100 |  | > 100 | > 100 | > 100 |  |
